From ChEMBL document CHEMBL4765401, “Synthesis, and biological evaluation of 3,6-diaryl-[1,2,4]triazolo[4,3-a]pyridine analogues as new potent tubulin polymerization inhibitors” (Eur J Med Chem, 2020)
Blank lines part the entries; values can stand above or below the molecule they belong to. Calls of active or inactive are those of the source. No cut-off for these calls is given here.

Legend:
HeLa [1] = experiment: Antiproliferative activity against human HeLa cells measured after 48 hrs by MTT assay; type: functional, cell-based
HeLa [2] = experiment: Induction of apoptosis in human HeLa cells assessed as late apoptotic cells at 12 nM measured after 24 hrs by Annexin V-FITC/propidium iodide staining based flow cytometry (reference value: 2.34%); type: functional
HeLa [3] = experiment: Induction of apoptosis in human HeLa cells assessed as increase in PARP cleavage measured after 24 hrs by Western blot analysis; type: functional, cell-based
HeLa [4] = experiment: Induction of apoptosis in human HeLa cells assessed as early apoptotic cells at 24 nM measured after 24 hrs by Annexin V-FITC/propidium iodide staining based flow cytometry (reference value: 3.97%); type: functional
HeLa [5] = experiment: Cell cycle arrest in human HeLa cells assessed as decrease in cdc2 expression measured after 24 hrs by Western blot analysis; type: functional, cell-based
HeLa [6] = experiment: Induction of apoptosis in human HeLa cells assessed as early apoptotic cells at 48 nM measured after 24 hrs by Annexin V-FITC/propidium iodide staining based flow cytometry (reference value: 3.97%); type: functional
HeLa [7] = experiment: Cell cycle arrest in human HeLa cells assessed as decrease in cyclin B1 expression measured after 24 hrs by Western blot analysis; type: functional, cell-based
HeLa [8] = experiment: Cell cycle arrest in human HeLa cells assessed as accumulation at G2M phase at 24 nM measured after 24 hrs by propidium iodide staining based flow cytometry (reference value: 11.14%); type: functional
HeLa [9] = experiment: Induction of apoptosis in human HeLa cells assessed as late apoptotic cells at 24 nM measured after 24 hrs by Annexin V-FITC/propidium iodide staining based flow cytometry (reference value: 2.34%); type: functional
HeLa [10] = experiment: Induction of apoptosis in human HeLa cells assessed as down regulation of Bcl-2 expression at 12 to 48 nM measured after 24 hrs by Western blot analysis; type: functional, cell-based; conditions: dose 12-48 nM
HeLa [11] = experiment: Cell cycle arrest in human HeLa cells assessed as accumulation at S phase at 12 nM measured after 24 hrs by propidium iodide staining based flow cytometry (reference value: 19.78%); type: functional
[12] = Inhibition of pig brain tubulin polymerization measured at 1 min interval for 20 mins by spectrophotometric method; parameters: species or system Sus scrofa
HeLa [13] = experiment: Cell cycle arrest in human HeLa cells assessed as accumulation at S phase at 48 nM measured after 24 hrs by propidium iodide staining based flow cytometry (reference value: 19.78%); type: functional
Sus scrofa = species on record: Sus scrofa; experiment: Inhibition of pig brain tubulin polymerization at 10 uM measured at 1 min interval for 20 mins by spectrophotometric method relative to control
MCF7 = experiment: Antiproliferative activity against human MCF7 cells measured after 48 hrs by MTT assay; type: functional, cell-based; conditions: MCF7, 48 h
HeLa [14] = experiment: Cell cycle arrest in human HeLa cells assessed as accumulation at G0/G1 phase at 24 nM measured after 24 hrs by propidium iodide staining based flow cytometry (reference value: 69.08%); type: functional
HeLa [15] = experiment: Induction of apoptosis in human HeLa cells assessed as viable cells at 12 nM measured after 24 hrs by Annexin V-FITC/propidium iodide staining based flow cytometry (reference value: 93.6%); type: functional; conditions: read-out: Activity
HeLa [16] = experiment: Induction of apoptosis in human HeLa cells assessed as viable cells at 24 nM measured after 24 hrs by Annexin V-FITC/propidium iodide staining based flow cytometry (reference value: 93.6%); type: functional; conditions: read-out: Activity
HeLa [17] = experiment: Cell cycle arrest in human HeLa cells assessed as accumulation at G2M phase at 48 nM measured after 24 hrs by propidium iodide staining based flow cytometry (reference value: 11.14%); type: functional
T47D = experiment: Antiproliferative activity against human T47D cells measured after 48 hrs by MTT assay; type: functional, cell-based
HeLa [18] = experiment: Induction of apoptosis in human HeLa cells assessed as necrotic cells at 48 nM measured after 24 hrs by Annexin V-FITC/propidium iodide staining based flow cytometry (reference value: 0.048%); type: functional
HeLa [19] = experiment: Induction of apoptosis in human HeLa cells assessed as early apoptotic cells at 12 nM measured after 24 hrs by Annexin V-FITC/propidium iodide staining based flow cytometry (reference value: 3.97%); type: functional
HeLa [20] = experiment: Cell cycle arrest in human HeLa cells assessed as accumulation at G0/G1 phase at 12 nM measured after 24 hrs by propidium iodide staining based flow cytometry (reference value: 69.08%); type: functional
HeLa [21] = experiment: Induction of apoptosis in human HeLa cells measured after 24 hrs by Annexin V-FITC/propidium iodide staining based flow cytometry; type: functional, cell-based
HeLa [22] = experiment: Induction of microtubule disruption in human HeLa cells at 12 nM measured after 6 hrs by DAPI staining based immunofluorescence microscopy; type: cell-based
HeLa [23] = experiment: Cell cycle arrest in human HeLa cells assessed as accumulation at G0/G1 phase at 48 nM measured after 24 hrs by propidium iodide staining based flow cytometry (reference value: 69.08%); type: functional
HeLa [24] = experiment: Cell cycle arrest in human HeLa cells assessed as accumulation at G2M phase at 12 nM measured after 24 hrs by propidium iodide staining based flow cytometry (reference value: 11.14%); type: functional
HeLa [25] = experiment: Cell cycle arrest in human HeLa cells assessed as increase in accumulation at G2M phase measured after 24 hrs by propidium iodide staining based flow cytometry; type: functional
HeLa [26] = experiment: Induction of apoptosis in human HeLa cells assessed as late apoptotic cells at 48 nM measured after 24 hrs by Annexin V-FITC/propidium iodide staining based flow cytometry (reference value: 2.34%); type: functional
HeLa [27] = experiment: Cell cycle arrest in human HeLa cells assessed as accumulation at S phase at 24 nM measured after 24 hrs by propidium iodide staining based flow cytometry (reference value: 19.78%); type: functional
HeLa [28] = experiment: Induction of apoptosis in human HeLa cells assessed as viable cells at 48 nM measured after 24 hrs by Annexin V-FITC/propidium iodide staining based flow cytometry (reference value: 93.6%); type: functional; conditions: read-out: Activity
HeLa [29] = experiment: Induction of apoptosis in human HeLa cells assessed as necrotic cells at 24 nM measured after 24 hrs by Annexin V-FITC/propidium iodide staining based flow cytometry (reference value: 0.048%); type: functional
A549 = experiment: Antiproliferative activity against human A549 cells measured after 48 hrs by MTT assay; type: functional, cell-based; conditions: A549, 48 h
HeLa [30] = experiment: Induction of apoptosis in human HeLa cells assessed as necrotic cells at 12 nM measured after 24 hrs by Annexin V-FITC/propidium iodide staining based flow cytometry (reference value: 0.048%); type: functional
HEK293 = experiment: Cytotoxicity against HEK293 cells measured after 48 hrs by MTT assay; type: cell-based; conditions: Homo sapiens, HEK293, 48 h

Compound: COc1ccc(-c2ccc3nnc(-c4cc(OC)c(OC)c(OC)c4)n3c2)cc1N
Activity (HeLa [2]): 3.23%
Activity (HeLa [3]): Dose-dependent effect
Activity (HeLa [4]): 18.9%
Activity (HeLa [5]): Dose-dependent effect
Activity (HeLa [6]): 36.4%
Activity (HeLa [7]): Dose-dependent effect
Activity (HeLa [8]): 26%
IC50 (HeLa [1]): 0.012 µM
Activity (HeLa [9]): 7.97%
Activity (HeLa [10]): Active
Activity (HeLa [11]): 22.03%
IC50 [12]: 3.4 µM
Activity (HeLa [13]): 5.22%
inhibition (Sus scrofa): 81%
IC50 (MCF7): 40.4 µM
Activity (HeLa [14]): 51.59%
viability at 0.012 µM (HeLa [15]): 91.4%
viability at 0.024 µM (HeLa [16]): 72.8%
Activity (HeLa [17]): 92.65%
IC50 (T47D): 27.9 µM
Activity (HeLa [18]): 0.922%
Activity (HeLa [19]): 5.21%
Activity (HeLa [20]): 64.07%
Activity (HeLa [21]): Dose-dependent effect
Activity (HeLa [22]): Active
Activity (HeLa [23]): 2.13%
Activity (HeLa [24]): 13.9%
Activity (HeLa [25]): Dose-dependent effect
Activity (HeLa [26]): 16.9%
Activity (HeLa [27]): 22.41%
viability at 0.048 µM (HeLa [28]): 45.8%
Activity (HeLa [29]): 0.373%
IC50 (A549): 10.4 µM
Activity (HeLa [30]): 0.139%
IC50 (HEK293): > 100 µM

Compound: COc1cc(-c2nnc3ccc(-c4cccnc4OC)cn23)cc(OC)c1OC
IC50 (HeLa [1]): 20.6 µM

Compound: COc1cc(-c2nnc3ccc(-c4ccc(Cl)c(Cl)c4)cn23)cc(OC)c1OC
IC50 (HeLa [1]): 0.347 µM

Compound: COc1cccc(-c2ccc3nnc(-c4cc(OC)c(OC)c(OC)c4)n3c2)c1
IC50 (HeLa [1]): 0.446 µM

Compound: COc1cc(-c2ccc3nnc(-c4ccc(Cl)c(Cl)c4)n3c2)cc(OC)c1OC
IC50 (HeLa [1]): > 25 µM

Compound: COc1ccc(-c2nnc3ccc(-c4cc(OC)c(OC)c(OC)c4)cn23)cc1N
IC50 (HeLa [1]): 3.97 µM

Compound: COc1ccc(-c2ccc3nnc(-c4cc(OC)c(OC)c(OC)c4)n3c2)c(O)c1
IC50 (HeLa [1]): > 25 µM

Compound: COc1ccc(-c2nnc3ccc(-c4cc(OC)c(OC)c(OC)c4)cn23)cc1O
IC50 (HeLa [1]): 22.1 µM

Further lines, with some results ahead:

IC50 (HeLa [1]): > 25 µM
Compound: COc1cc(-c2nnc3ccc(-c4ccc(O)cc4)cn23)cc(OC)c1OC

IC50 (HeLa [1]): > 25 µM
Compound: COc1cc(-c2ccc3nnc(-c4ccc(F)cc4)n3c2)cc(OC)c1OC

IC50 (HeLa [1]): > 25 µM
Compound: COc1cc(-c2nnc3ccc(-c4ccc(C(F)(F)F)cc4)cn23)cc(OC)c1OC

IC50 (HeLa [1]): > 25 µM
Compound: COc1cc(-c2ccc3nnc(-c4ccc(C)cc4)n3c2)cc(OC)c1OC

IC50 (HeLa [1]): 0.062 µM
inhibition (Sus scrofa): 36%
IC50 (MCF7): 75.7 µM
IC50 (T47D): > 100 µM
IC50 (A549): 58.7 µM
Compound: COc1ccc(-c2ccc3nnc(-c4cc(OC)c(OC)c(OC)c4)n3c2)cc1[N+](=O)[O-]
IC50 (HEK293): > 100 µM

IC50 (HeLa [1]): > 25 µM
Compound: COc1ccc(-c2nnc3ccc(-c4cc(OC)c(OC)c(OC)c4)cn23)cc1[N+](=O)[O-]

IC50 (HeLa [1]): 0.023 µM
Compound: COc1cc(-c2nnc3ccc(-c4ccc([N+](=O)[O-])cc4)cn23)cc(OC)c1OC
IC50 (HEK293): > 100 µM

IC50 (HeLa [1]): > 25 µM
Compound: COc1cc(-c2ccc3nnc(-c4ccc(Cl)cc4)n3c2)cc(OC)c1OC
